{"source": "PubChem BioAssay AID1334", "about": "(NMMLSC, 2008)", "note": "pEC50: −log10 of the molar value. Several values for one entry are separate records, joined by “and”; a condition that tells them apart may be missing. Equal entries are not always repeated.", "data": [{"molecular_target": "Cell division control protein 42 homolog (Homo sapiens) (UniProt P60953)", "sequence (P60953 whole entry, looked up)": "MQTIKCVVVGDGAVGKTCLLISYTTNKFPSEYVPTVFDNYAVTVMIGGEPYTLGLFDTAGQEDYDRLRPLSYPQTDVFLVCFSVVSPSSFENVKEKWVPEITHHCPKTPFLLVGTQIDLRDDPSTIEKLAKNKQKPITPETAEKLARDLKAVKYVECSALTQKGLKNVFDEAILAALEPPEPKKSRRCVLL", "assay": "wildtype Cdc42 GTP-binding inhibitors, dose response, biochemical, multiplex bead flow cytometry, Bodipy-FL-GTP (AID 1334);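 also: potency of inhibiting fluorescent GTP binding to Cdc42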", "conditions": "bead-based flow cytometry, Bodipy-FL-GTP binding to GST-Cdc42", "values": [{"molecule": "CC(=O)c1ccc(C#CC(=O)c2ccc([N+](=O)[O-])cc2)cc1", "pEC50": 6.40}, {"molecule": "CCOc1ccc(/C=C2\\SC(N3CCc4ccccc4C3)=NC2=O)cc1", "pEC50": 4.39}, {"molecule": "CCS(=O)(=O)N1N=C(c2cccc(NS(C)(=O)=O)c2)CC1c1ccc(C)cc1", "note": "(configuration not stated)", "pEC50": 5.59}, {"molecule": "CS(=O)(=O)c1ccc(C(=O)OCC(=O)NC(=O)C2CCCCC2)cc1[N+](=O)[O-]", "pEC50": 4.27}, {"molecule": "CCc1ccc(NS(=O)(=O)c2ccc3[nH]cc(C(=O)N4CCc5ccccc54)c(=O)c3c2)cc1", "pEC50": 4.72}, {"molecule": "S=C(Nc1ccc(Oc2ccccc2)cc1)NC1CCCCC1", "pEC50": 4.48}, {"molecule": "NS(=O)(=O)c1ccc(N2N=C(c3ccccc3)CC2c2cccc(F)c2)cc1", "note": "(configuration not stated)", "pEC50": 5.31}, {"molecule": "CCCS(=O)(=O)c1nnnn1-c1cccc(OC)c1", "pEC50": 4.72}, {"molecule": "O=C(Nc1nnc(-c2ccc3c(c2)OCCO3)o1)c1ccc(Cc2ccccc2)cc1", "pEC50": 6.45}, {"molecule": "CCOC(=O)c1c(NC(=O)C(=O)N/N=C/c2ccc(O)c(OC)c2)sc2c1CCCCC2", "pEC50": 5.54}, {"molecule": "CCC(C(=O)NC1CCCC1)N(C(=O)Cn1nnc(-c2ccc(C)o2)n1)c1cnc2ccccc2c1", "note": "(configuration not stated)", "pEC50": 4.46}, {"molecule": "O=C(O)/C=C/c1cn(Cc2ccccc2)nc1-c1cccs1", "pEC50": 5.40}, {"molecule": "Cc1cc(C)c(C)c(C(=O)c2ccccc2C(=O)O)c1C", "pEC50": 5.23}, {"molecule": "Cc1sc2nc3ccc(NCc4ccco4)nn3c(=O)c2c1C", "pEC50": 4.67}, {"molecule": "COc1ccc(-c2cc(C#N)nc(N3CCNCC3)n2)cc1", "pEC50": 4.55}, {"molecule": "Cc1cccc2cc(CN(Cc3cccs3)C(c3nnnn3C3CCCC3)C(C)C)c(=O)[nH]c12", "note": "(configuration not stated)", "pEC50": 5.71}, {"molecule": "CCOC(=O)c1cc([N+](=O)[O-])c([N+](=O)[O-])cc1NC(C)=O", "pEC50": 5.14}, {"molecule": "CCCN1C(=O)/C(=C/C=C2\\N(CC)c3ccccc3C2(C)C)SC1=S", "pEC50": 5.26}, {"molecule": "COC(=O)c1cccnc1SCCc1ccccc1", "pEC50": 4.73}, {"molecule": "CCCc1nc2c(=O)n(C)c(=O)nc-2n(C)n1", "pEC50": 5.88}, {"molecule": "COc1ccc(C2CC(c3ccccc3)=NN2c2ccc(S(N)(=O)=O)cc2)cc1", "note": "(configuration not stated)", "pEC50": "5.50 and 5.49"}, {"molecule": "O=C(O)c1ccccc1OCc1ccccc1Br", "pEC50": 6.99}, {"molecule": "Cc1ccc(C)c(OCCn2cc(C(=O)O)c3ccccc32)c1", "pEC50": 6.23}, {"molecule": "N#Cc1c(-c2ccccc2)nc(SCC(=O)Nc2ccccc2)[nH]c1=O", "pEC50": 5.68}, {"molecule": "CC(C)C(NCc1c(Cl)cccc1Cl)C(=O)O", "note": "(configuration not stated)", "pEC50": 5.19}, {"molecule": "O=C(O)c1ccccc1NCCc1ccc(Cl)cc1", "pEC50": 5.81}, {"molecule": "O=C(O)c1ccccc1Sc1ncnc2sc3c(c12)CCC3", "pEC50": 5.36}, {"molecule": "CCOC(=O)Cn1nnnc1C(C(C)C)N(Cc1cccs1)Cc1cc2cc(C)ccc2[nH]c1=O", "note": "(configuration not stated)", "pEC50": 5.14}, {"molecule": "O=C(NCc1cccs1)c1cccnc1C(=O)O", "pEC50": 5.40}, {"molecule": "CCn1nc(/C=C/c2ccccc2)nc2c(=O)n(C)c(=O)nc1-2", "pEC50": 5.81}, {"molecule": "NS(=O)(=O)c1ccc(N2N=C(c3ccccc3)CC2c2ccccc2)cc1", "note": "(configuration not stated)", "pEC50": 5.08}, {"molecule": "Cc1nc2c(=O)n(C)c(=O)nc-2n(C)n1", "pEC50": 5.71}]}]}
